*1 amine or outer side, *2 acyl side, *3 side chain or, on linkers, in order; H or OH if unused. Where a SMILES comes first, the peptide text is derived from it. Bridges are numbered along the chain shown (N, C = ends). [ ]: non-standard residue; d: D form. The star is where a group is joined. hPhe(3,5-F2-4-CF3) = N[C@@H](CCc1cc(F)c(C(F)(F)F)c(F)c1)C(=O)O; hPhe(3-Cl-4-CF3) = N[C@@H](CCc1ccc(C(F)(F)F)c(Cl)c1)C(=O)O; NPrPhe(4-CF3) = CCCN[C@@H](Cc1ccc(C(F)(F)F)cc1)C(=O)O; X28 = Cc1ccc(C[C@@H](C(=O)[*:2])N(CC2CCCCC2)[*:1])cc1; NMeGly(cPent) = CN[C@H](C(=O)O)C1CCCC1; Pro(4,4-Me2) = CC1(C)CN[C@H](C(=O)O)C1; Nva(3-Et) = CCC(CC)[C@H](N)C(=O)O; NMeD = CN[C@@H](CC(=O)O)C(=O)O; NMeL = CN[C@@H](CC(C)C)C(=O)O; NMeS = CN[C@@H](CO)C(=O)O; Iva = CC[C@](C)(N)C(=O)O; Morpholide = C1CN(*)CCO1; Ac5c = NC1(C(=O)O)CCCC1; NEtG = CCNCC(=O)O; Sar = CNCC(=O)O
Experiments:
[1] = tested on: human lung cancer strain NCI-H441; type: cell-based
Outline: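 Proliferation was scored by […] measured after the reagent was added to cultures kept at 37°C in 5% carbon dioxide.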

[2] = target: HRAS wild-type protein (Homo sapiens, UniProt P01112); experiment: Binding to HRAS by surface plasmon resonance (SPR), KD and KD ratio to KRAS
Outline: (§1)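 SPR, 30°C: Avi-biotin RAS·GDP captured via Biotin CAPture (~100–300 RU); running buffer HBS pH 7.4, 1 mM DTT, 10 mM MgCl2, 0.01% Tween 20, 10 µM GDP, 4% DMSO. Single-cycle kinetics, 100 µL/min, 75 s injections; 1:1 model → KD.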

[3] = target: GDP-bound NRAS wild-type protein (Homo sapiens, UniProt P01111); experiment: Binding to NRAS by surface plasmon resonance (SPR), KD and KD ratio to KRAS
Outline: as §1

[4] = ratio of KD for HRAS wild-type protein to KD for KRAS
[5] = ratio of KD for GDP-bound NRAS wild-type protein to KD for KRAS
[6] = ratio of the KD value with respect to HRAS wild-type protein to the KD value with respect to KRAS
[7] = ratio of the KD value with respect to GDP-bound NRAS wild-type protein to the KD value with respect to KRAS

Sequence of GDP-bound NRAS wild-type protein (P01111 whole entry): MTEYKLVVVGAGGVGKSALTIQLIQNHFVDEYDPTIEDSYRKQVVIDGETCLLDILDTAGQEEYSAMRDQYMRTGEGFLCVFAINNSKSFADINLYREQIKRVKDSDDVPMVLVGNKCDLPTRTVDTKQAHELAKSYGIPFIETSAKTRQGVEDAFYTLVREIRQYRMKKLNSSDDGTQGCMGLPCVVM
Sequence of HRAS wild-type protein (P01112 whole entry): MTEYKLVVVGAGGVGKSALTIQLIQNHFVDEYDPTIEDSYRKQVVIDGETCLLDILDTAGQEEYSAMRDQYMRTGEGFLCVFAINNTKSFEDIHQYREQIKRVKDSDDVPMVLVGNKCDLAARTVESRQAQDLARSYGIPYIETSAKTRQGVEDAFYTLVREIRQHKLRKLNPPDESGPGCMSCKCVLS

Structure (SMILES) | IC50 [1] [nM] | HRAS /KRAS [2, 4] | NRAS /KRAS [3, 5] | HRAS /KRAS [2, 6] | NRAS /KRAS [3, 7]
CCCN1C(=O)CN(C)C(=O)CN(C)C(=O)[C@H](C(CC)CC)NC(=O)[C@H](CC(C)C)N(C)C(=O)C[C@@H](C(=O)N2CCOCC2)N(C)C(=O)[C@H](C2CCCC2)N(C)C(=O)C2(CCCC2)NC(=O)[C@@H]2CCCN2C(=O)[C@H](CCc2cc(F)c(C(F)(F)F)c(F)c2)NC(=O)CN(C)C(=O)[C@@H]1Cc1ccc(C(F)(F)F)cc1 [PP0768] ([NMeL][Nva(3-Et)][Sar][Sar][NPrPhe(4-CF3)][Sar][hPhe(3,5-F2-4-CF3)]P[Ac5c][NMeGly(cPent)][NMeD]-Morpholide; lactam N-11) | 36.1 | C (A compound having a KD ratio of 0.1 or more and less than 3 is denoted as C) | B (a compound having 3 or more and less than 10 is denoted as B) | – | –
CCCN1C(=O)CN(C)C(=O)CN(C)C(=O)[C@H]([C@@H](C)CC)NC(=O)[C@H](CC(C)C)N(C)C(=O)C[C@@H](C(=O)N2CCOCC2)N(C)C(=O)[C@H](C2CCCC2)N(C)C(=O)[C@](C)(CC)NC(=O)[C@@H]2CCCN2C(=O)[C@H](CCc2cc(F)c(C(F)(F)F)c(F)c2)NC(=O)CN(C)C(=O)[C@@H]1Cc1ccc(C(F)(F)F)cc1 [PP0754] ([NMeL]I[Sar][Sar][NPrPhe(4-CF3)][Sar][hPhe(3,5-F2-4-CF3)]P[Iva][NMeGly(cPent)][NMeD]-Morpholide; lactam N-11) | 40.4 | – | – | C (A compound having a KD ratio of 0.1 or more and less than 3 is denoted as C) | B (a compound having 3 or more and less than 10 is denoted as B)
CC[C@H](C)[C@@H]1NC(=O)[C@H](CC(C)C)N(C)C(=O)C[C@@H](C(=O)N2CCOCC2)N(C)C(=O)[C@H](C2CCCC2)N(C)C(=O)C2(CCCC2)NC(=O)[C@@H]2CCCN2C(=O)[C@H](CCc2ccc(C(F)(F)F)c(Cl)c2)NC(=O)CN(C)C(=O)[C@H](Cc2ccc(C)cc2)N(CC2CCCCC2)C(=O)CN(C)C(=O)CN(C)C1=O [PP0097] ([NMeL]I[Sar][Sar][X28][Sar][hPhe(3-Cl-4-CF3)]P[Ac5c][NMeGly(cPent)][NMeD]-Morpholide; lactam N-11) | 240 | C (A compound having a KD ratio of 0.1 or more and less than 3 is denoted as C) | C (A compound having a KD ratio of 0.1 or more and less than 3 is denoted as C) | – | –
CCCN1C(=O)CN(C)C(=O)CN(C)C(=O)[C@H]([C@@H](C)CC)NC(=O)[C@H](CC(C)C)N(C)C(=O)C[C@@H](C(=O)N2CCOCC2)N(C)C(=O)[C@H](C2CCCC2)N(C)C(=O)C2(CCCC2)NC(=O)[C@H](COC)N(C)C(=O)[C@H](CCc2ccc(C(F)(F)F)c(Cl)c2)NC(=O)CN(C)C(=O)[C@@H]1Cc1ccc(C(F)(F)F)cc1 [PP1920] ([NMeL]I[Sar][Sar][NPrPhe(4-CF3)][Sar][hPhe(3-Cl-4-CF3)][NMeS](Me)[Ac5c][NMeGly(cPent)][NMeD]-Morpholide; lactam N-11) | 32.4 | – | – | C (A compound having a KD ratio of 0.1 or more and less than 3 is denoted as C) | B (a compound having 3 or more and less than 10 is denoted as B)
CC[C@H](C)[C@@H]1NC(=O)[C@H](CC(C)C)N(C)C(=O)C[C@@H](C(=O)N2CCOCC2)N(C)C(=O)[C@H](C2CCCC2)N(C)C(=O)C2(CCC2)NC(=O)[C@@H]2[C@H]3C[C@H]3CN2C(=O)[C@H](CCc2cc(F)c(C(F)(F)F)c(F)c2)NC(=O)CN(C)C(=O)[C@H](Cc2ccc(C(F)(F)F)cc2)N2CCCC[C@@H](C2=O)N(C)C(=O)CN(C)C1=O [PP0810] | 12.8 | B (a compound having 3 or more and less than 10 is denoted as B) | B (a compound having 3 or more and less than 10 is denoted as B) | – | –

Second part, led by results:

IC50 [1] [nM] | Structure (SMILES) | HRAS /KRAS [2, 4] | NRAS /KRAS [3, 5] | HRAS /KRAS [2, 6] | NRAS /KRAS [3, 7]
2.3 | CC[C@H](C)[C@@H]1NC(=O)[C@H](CC(C)C)N(C)C(=O)C[C@@H](C(=O)N2CCOCC2)N(C)C(=O)[C@H](C2CCCC2)N(C)C(=O)C2(CCCC2)NC(=O)[C@@H]2CCCN2C(=O)[C@H](CCc2ccc(C(F)(F)F)c(Cl)c2)NC(=O)CN(C)C(=O)[C@H](Cc2ccc(C(F)(F)F)cc2)N2CCCC[C@@H](C2=O)N(C)C(=O)CN(C)C1=O [PP0318] | B (a compound having 3 or more and less than 10 is denoted as B) | B (a compound having 3 or more and less than 10 is denoted as B) | – | –
32.7 | CCO[C@@H]1C[C@H]2C(=O)NC3(CC(C)(C)C3)C(=O)N(C)[C@@H](C3CCCC3)C(=O)N(C)[C@H](C(=O)N3CCOCC3)CC(=O)N(C)[C@@H](CC(C)C)C(=O)N[C@@H]([C@@H](C)CC)C(=O)N(C)CC(=O)N(C)[C@H]3CCCCCN(C3=O)[C@@H](Cc3ccc(C(F)(F)F)cc3)C(=O)N(C)CC(=O)N[C@@H](CCc3cc(F)c(C(F)(F)F)c(F)c3)C(=O)N2C1 [PP0726] | – | – | B (a compound having 3 or more and less than 10 is denoted as B) | B (a compound having 3 or more and less than 10 is denoted as B)
8.4 | CCCN1C(=O)CN(C)C(=O)CN(CC)C(=O)[C@H]([C@@H](C)CC)NC(=O)[C@H](CC(C)C)N(C)C(=O)C[C@@H](C(=O)N2CCOCC2)N(C)C(=O)[C@H](C2CCCC2)N(C)C(=O)C2(CCCC2)NC(=O)[C@@H]2CC(C)(C)CN2C(=O)[C@H](CCc2ccc(C(F)(F)F)c(Cl)c2)NC(=O)CN(C)C(=O)[C@@H]1Cc1ccc(C(F)(F)F)cc1 [PP0450] ([NMeL]I[NEtG][Sar][NPrPhe(4-CF3)][Sar][hPhe(3-Cl-4-CF3)][Pro(4,4-Me2)][Ac5c][NMeGly(cPent)][NMeD]-Morpholide; lactam N-11) | – | – | C (A compound having a KD ratio of 0.1 or more and less than 3 is denoted as C) | B (a compound having 3 or more and less than 10 is denoted as B)
14.2 | CCO[C@@H]1C[C@H]2C(=O)NC3(CC(C)(C)C3)C(=O)N(C)[C@@H](C(CC)CC)C(=O)N(C)[C@H](C(=O)N(C)C)CC(=O)N(C)[C@@H](CC3CCC3)C(=O)N[C@@H]([C@@H](C)CC)C(=O)N(C)CC(=O)N(C)[C@H]3C/C=C\CCN(C3=O)[C@@H](Cc3ccc(C(F)(F)F)cc3)C(=O)N(C)CC(=O)N[C@@H](CCc3ccc(C(F)(F)F)c(OC)c3)C(=O)N2C1 [PP2164] | – | – | A (a compound having 10 or more and less than 20 is denoted as A) | A (a compound having 10 or more and less than 20 is denoted as A)
10.8 | CC[C@H](C)[C@@H]1NC(=O)[C@H](CC(C)C)N(C)C(=O)C[C@@H](C(=O)N(C)CC)N(C)C(=O)[C@H](C2CCCC2)N(C)C(=O)C2(CC(C)(C)C2)NC(=O)[C@@H]2C[C@H](C)CN2C(=O)[C@H](CCc2ccc(C(F)(F)F)c(OC)c2)NC(=O)CN(C)C(=O)[C@H](Cc2ccc(C)cc2)N2CC/C=C\C[C@@H](C2=O)N(C)C(=O)CN(C)C1=O [PP1906] | – | – | A (a compound having 10 or more and less than 20 is denoted as A) | A (a compound having 10 or more and less than 20 is denoted as A)
8.7 | C#CC[C@H]1C(=O)N[C@@H]([C@@H](C)CC)C(=O)N(C)CC(=O)N(C)[C@H]2C/C=C\CCN(C2=O)[C@@H](Cc2ccc(C(F)(F)F)cc2)C(=O)N(C)CC(=O)N[C@@H](CCc2cc(F)c(C(F)(F)F)c(F)c2)C(=O)N2CC3(CC3)C[C@H]2C(=O)NC2(CC(C)(C)C2)C(=O)N(C)[C@@H](C2CCCC2)C(=O)N(C)[C@H](C(=O)N(C)C)CC(=O)N1C [PP2976] | B (a compound having 3 or more and less than 10 is denoted as B) | A (a compound having 10 or more and less than 20 is denoted as A) | – | –
